Consider 25 compounds from patent US9012651B2, “TRPV3 modulators” (AbbVie Inc., priority 2011, dated 2015).

Chain of human TRPV3 receptors (Q8NET8 whole entry): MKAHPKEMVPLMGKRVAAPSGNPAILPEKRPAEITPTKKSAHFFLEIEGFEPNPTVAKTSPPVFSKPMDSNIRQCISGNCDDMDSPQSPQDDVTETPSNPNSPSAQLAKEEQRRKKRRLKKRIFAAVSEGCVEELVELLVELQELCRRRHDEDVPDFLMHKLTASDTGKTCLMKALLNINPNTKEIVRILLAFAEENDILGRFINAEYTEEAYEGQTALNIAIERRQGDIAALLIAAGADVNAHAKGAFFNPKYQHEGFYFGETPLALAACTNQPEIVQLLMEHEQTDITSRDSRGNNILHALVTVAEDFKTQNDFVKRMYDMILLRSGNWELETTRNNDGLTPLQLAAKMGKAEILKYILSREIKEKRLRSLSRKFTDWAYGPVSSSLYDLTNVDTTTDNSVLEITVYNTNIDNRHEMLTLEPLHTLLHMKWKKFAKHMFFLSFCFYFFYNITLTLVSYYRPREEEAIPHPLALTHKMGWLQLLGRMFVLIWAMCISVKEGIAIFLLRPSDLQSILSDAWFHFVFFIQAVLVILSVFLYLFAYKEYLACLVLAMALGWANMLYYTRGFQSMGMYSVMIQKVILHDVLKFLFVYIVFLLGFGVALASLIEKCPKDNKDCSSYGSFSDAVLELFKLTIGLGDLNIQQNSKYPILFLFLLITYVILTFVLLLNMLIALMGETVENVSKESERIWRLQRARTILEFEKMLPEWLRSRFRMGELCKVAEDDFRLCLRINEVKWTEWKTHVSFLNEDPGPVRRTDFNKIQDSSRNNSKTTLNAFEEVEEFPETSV

The target in the experiment is human TRPV3 receptors (Homo sapiens (Human), UniProt Q8NET8). Briefly: Calcium flux assay (FLIPR TETRA), inhibition of the 2-APB response. The class given is cell-based. The note with it: recombinant HEK293 cells stably expressing TRPV3, Calcium-4 dye, 2-APB at its EC80. How it is done:
(i) In Vitro Methods-Calcium Flux Assays:
Experiments were conducted using the FLIPR^TETRA®. On the day prior to the experiment, recombinant HEK293 cells that stably express human and mouse TRPV3 were removed from tissue culture flasks and plated in growth medium at 20,000 cells/well into black-walled clear-bottom 384-well Biocoat™ poly-D-lysine assay plates (BD Biosciences, Bedford, Mass.) using a Multidrop® dispenser (ThermoScientific, Waltham, Mass.). […] Cells were incubated for 90-120 minutes in the dark. Compounds were dissolved in DMSO to prepare a 10 mM stock solution. The intensity of the fluorescence was captured and digitally transferred to an interfaced PC. The peak increase in fluorescence over baseline (relative fluorescence units) was calculated and expressed as the percentage of the maximal 2-APB (2-aminoethoxyldiphenyl borate) response (in the absence of compound).
(In general: Calcium assays in cells follow changes in intracellular calcium, usually with a dye or a luminescent sensor.)
One may read the IC50 as the concentration at which inhibition is half-maximal. Consider `CC(=O)c1cccc(-c2ccc(F)c(CN[C@@H](CO)C(C)C)n2)c1F` [Example 37, 1-{2-fluoro-3-[5-fluoro-6-({[(2R)-1-hydroxy-3-methylbutan-2-yl]amino}methyl)pyridin-2-yl]phenyl}ethanone], for which the IC50 was found to be 1190 nM.

`CC(C)[C@H](CO)NCc1nc(-c2ccc(Cl)nc2)ccc1F` [Example 38, (2R)-2-{[(6′-chloro-5-fluoro-2,3′-bipyridin-6-yl)methyl]amino}-3-methylbutan-1-ol]: the half-maximal inhibitory concentration (IC50) is 2850 nM.

For `CC(C)[C@H](CO)NCc1nc(-c2cccc(S(=O)(=O)N(C)C)c2)ccc1F` [Example 39, 3-[5-fluoro-6-({[(2R)-1-hydroxy-3-methylbutan-2-yl]amino}methyl)pyridin-2-yl]-N,N-dimethylbenzenesulfonamide], the half-maximal inhibitory concentration (IC50) amounted to 1700 nM.

Regarding `CC(=O)c1cccc(-c2ccc(F)c(CN[C@@H](CO)C(C)C)n2)c1` [Example 40, 1-{3-[5-fluoro-6-({[(2R)-1-hydroxy-3-methylbutan-2-yl]amino}methyl)pyridin-2-yl]phenyl}ethanone], the concentration for half-maximal inhibition (IC50) was 1400 nM.

As for `CCN(CC)C(=O)c1cccc(-c2ccc(F)c(CN[C@@H](CO)C(C)C)n2)c1` [Example 41, N,N-diethyl-3-[5-fluoro-6-({[(2R)-1-hydroxy-3-methylbutan-2-yl]amino}methyl)pyridin-2-yl]benzamide], the half-maximal inhibitory concentration (IC50) was 2970 nM.

In the case of `CC(C)[C@H](CO)NCc1nc(-c2ccc(Cl)cc2)ccc1F` [Example 42, (2R)-2-({[6-(4-chlorophenyl)-3-fluoropyridin-2-yl]methyl}amino)-3-methylbutan-1-ol], the IC50 was found to be 390 nM.

Regarding `CC(C)[C@H](CO)NCc1nc(-c2cccc(N(C)C)c2)ccc1F` [Example 43, (2R)-2-[({6-[3-(dimethylamino)phenyl]-3-fluoropyridin-2-yl}methyl)amino]-3-methylbutan-1-ol], the half-maximal inhibitory concentration (IC50) was 460 nM.

As to `CC(C)[C@H](CO)NCc1nc(-c2cccc(N3CCOCC3)c2)ccc1F` [Example 44, (2R)-2-[({3-fluoro-6-[3-(morpholin-4-yl)phenyl]pyridin-2-yl}methyl)amino]-3-methylbutan-1-ol], the half-inhibitory concentration (IC50) came out at 830 nM.

Regarding `CC(C)[C@H](CO)NCc1nc(-c2cccc(C(=O)N3CCCCC3)c2)ccc1F` [Example 45, {3-[5-fluoro-6-({[(2R)-1-hydroxy-3-methylbutan-2-yl]amino}methyl)pyridin-2-yl]phenyl}(piperidin-1-yl)methanone], the IC50 was 3470 nM.

`CC1CCN(C(=O)c2cccc(-c3ccc(F)c(CN[C@@H](CO)C(C)C)n3)c2)CC1` [Example 46, {3-[5-fluoro-6-({[(2R)-1-hydroxy-3-methylbutan-2-yl]amino}methyl)pyridin-2-yl]phenyl}(4-methylpiperidin-1-yl)methanone]: the IC50 came out at 2020 nM.

Regarding `CC(C)[C@H](CO)NCc1nc(-c2ccc(C(F)(F)F)c(Cl)c2)ccc1F` [Example 47, (2R)-2-[({6-[3-chloro-4-(trifluoromethyl)phenyl]-3-fluoropyridin-2-yl}methyl)amino]-3-methylbutan-1-ol], the 50% inhibitory concentration (IC50) was 290 nM.

Take `CC(C)[C@H](CO)NCc1nc(-c2cccc(S(=O)(=O)N3CCCCC3)c2)ccc1F` [Example 48, (2R)-2-[({3-fluoro-6-[3-(piperidin-1-ylsulfonyl)phenyl]pyridin-2-yl}methyl)amino]-3-methylbutan-1-ol]: the IC50 amounted to 330 nM.

Take `CC(C)[C@H](CO)NCc1nc(-c2cccc(N3CCCC3)c2)ccc1F` [Example 49, (2R)-2-[({3-fluoro-6-[3-(pyrrolidin-1-yl)phenyl]pyridin-2-yl}methyl)amino]-3-methylbutan-1-ol]: the IC50 worked out at 480 nM.

Take `Cc1ccc(S(=O)(=O)N(C)C)cc1-c1ccc(F)c(CN[C@@H](CO)C(C)C)n1` [Example 50, 3-[5-fluoro-6-({[(2R)-1-hydroxy-3-methylbutan-2-yl]amino}methyl)pyridin-2-yl]-N,N,4-trimethylbenzenesulfonamide]: the IC50 is 1770 nM.

As for `CCN(CC)S(=O)(=O)c1cccc(-c2ccc(F)c(CN[C@@H](CO)C(C)C)n2)c1` [Example 51, N,N-diethyl-3-[5-fluoro-6-({[(2R)-1-hydroxy-3-methylbutan-2-yl]amino}methyl)pyridin-2-yl]benzenesulfonamide], the IC50 worked out at 500 nM.

For `CC(C)[C@H](CO)NCc1nc(-c2cccc(C(=O)N(C)C3CCCCC3)c2)ccc1F` [Example 52, N-cyclohexyl-3-[5-fluoro-6-({[(2R)-1-hydroxy-3-methylbutan-2-yl]amino}methyl)pyridin-2-yl]-N-methylbenzamide], the IC50 worked out at 1420 nM.

With `CC(C)[C@H](CO)NCc1nc(-c2ccc(OCC(F)(F)F)cc2)ccc1F` [Example 53, (2R)-2-[({3-fluoro-6-[4-(2,2,2-trifluoroethoxy)phenyl]pyridin-2-yl}methyl)amino]-3-methylbutan-1-ol], the IC50 is 460 nM.

On to `CC(C)[C@H](CO)NCc1nc(-c2cccc(S(=O)(=O)N3CCOCC3)c2)ccc1F` [Example 54, (2R)-2-[({3-fluoro-6-[3-(morpholin-4-ylsulfonyl)phenyl]pyridin-2-yl}methyl)amino]-3-methylbutan-1-ol], for which the half-maximal inhibitory concentration (IC50) was found to be 760 nM.

In the case of `CC(C)[C@H](CO)NCc1nc(-c2ccnc(N3CCOCC3)c2)ccc1F` [Example 55, (2R)-2-({[5-fluoro-2′-(morpholin-4-yl)-2,4′-bipyridin-6-yl]methyl}amino)-3-methylbutan-1-ol], the IC50 is 2160 nM.

On to `CC(C)[C@H](CO)NCc1nc(-c2cccc(C(=O)N(C(C)C)C(C)C)c2)ccc1F` [Example 56, 3-[5-fluoro-6-({[(2R)-1-hydroxy-3-methylbutan-2-yl]amino}methyl)pyridin-2-yl]-N,N-diisopropylbenzamide], for which the IC50 came to 1780 nM.

Turning to `CC(C)Oc1ccc(-c2ccc(F)c(CN[C@@H](CO)C(C)C)n2)cn1` [Example 57, (2R)-2-({[5-fluoro-6′-(propan-2-yloxy)-2,3′-bipyridin-6-yl]methyl}amino)-3-methylbutan-1-ol], the half-inhibitory concentration (IC50) is 500 nM.

For the compound `CC(C)[C@H](CO)NCc1nc(-c2cccc(C(=O)N(C)Cc3ccccc3)c2)ccc1F` [Example 58, N-benzyl-3-[5-fluoro-6-({[(2R)-1-hydroxy-3-methylbutan-2-yl]amino}methyl)pyridin-2-yl]-N-methylbenzamide], the IC50 came to 1490 nM.

In the case of `Cc1ccc(S(=O)(=O)C(F)(F)F)cc1-c1ccc(F)c(CN[C@@H](CO)C(C)C)n1` [Example 59, (2R)-2-{[(3-fluoro-6-{2-methyl-5-[(trifluoromethyl)sulfonyl]phenyl}pyridin-2-yl)methyl]amino}-3-methylbutan-1-ol], the concentration for half-maximal inhibition (IC50) is 630 nM.

Take `CC(C)[C@H](CO)NCc1nc(-c2cccc(S(=O)(=O)N3CCCC3)c2)ccc1F` [Example 60, (2R)-2-[({3-fluoro-6-[3-(pyrrolidin-1-ylsulfonyl)phenyl]pyridin-2-yl}methyl)amino]-3-methylbutan-1-ol]: the IC50 amounted to 1080 nM.

For the compound `CC(C)[C@H](CO)NCc1nc(-c2cccc(S(=O)(=O)N(C)C(C)(C)C)c2)ccc1F` [Example 61, N-tert-butyl-3-[5-fluoro-6-({[(2R)-1-hydroxy-3-methylbutan-2-yl]amino}methyl)pyridin-2-yl]-N-methylbenzenesulfonamide], the IC50 was 190 nM.
